Measurements published in patent US11672802B2, “Induction of immune tolerance by using methotrexate” (Genzyme Corporation, priority 2011, dated 2023).

Assays:
[1] = tested on: anti-rhGAA IgG; assay: Anti-rhGAA IgG ELISA titers in mice treated with rhGAA; type: in vivo; settings: for anti-rhGAA titers: IL-10 knockout animals, rhGAA and methotrexate
Experimental: Recombinant human alglucosidase alfa (rhGAA, marketed by Genzyme Corp. as Myozyme®) was used as a formulated drug product. Mice were treated weekly with 20 mg/kg of rhGAA by bolus tail vein injection unless stated differently. All mice were treated prophylactically with 5 to 30 mg/kg diphenhydramine (Baxter Healthcare Corporation, Deerfield, Ill.) intraperitoneally prior to rhGAA administration. Control animals were treated intravenously with either sterile 0.9% saline or rhGAA-formulation buffer. Methotrexate treatment
Mice were bled 4-6 days following rhGAA treatment and specific IgG was measured by ELISA. […] Endpoint titers were defined as the reciprocal of the sample dilution resulting in an absorbance value of 0.2 using Softmax software (Molecular Devices, Sunnyvale, Calif.).
C57Bl/6 mice were treated with one 20 mg/kg intravenous dose of rhGAA (Genzyme Corporation), 3 consecutive intraperitoneal doses of 5 mg/kg methotrexate (APP Pharmaceuticals, LLC), and either 1D11 or 13C4 at 5 mg/kg (Genzyme Corporation) for 3 doses every other day. Methotrexate, 1D11, and 13C4 treatment commenced with rhGAA injections. Spleens were collected 7 days after treatment initiation and were processed as described above for B cells, culture and flow analysis. Additionally, rhGAA titer data was obtained by treating animals as described above, with rhGAA dosed weekly over 12 weeks, methotrexate dosed for either 1 or 3 cycles, and 1D11 or 13C4 dosed 3 times a week every other day for 12 weeks. Serum samples were collected every 2 weeks for ELISA analysis.

[2] = tested on: anti-rhGAA antibody titers; assay: Adoptive transfer of splenic B cells from tolerized mice; type: in vivo, C57BL/6 mice; settings: donors treated with Myozyme and a single cycle of methotrexate
Experimental: C57BL/6 mice were obtained from Jackson Laboratories and were housed under specific pathogen free conditions. Control mice were given a single intravenous injection of rhGAA at 20 mg/kg. Tolerized mice were given a single intravenous injection of rhGAA at 20 mg/kg, in addition to three daily consecutive methotrexate intraperitoneal injections of 0.5 mg. Spleens were harvested on day six after the initial rhGAA injection, from both donor groups, and processed into pooled single cell suspensions. Cells were washed and filtered through a […]. Cells were then enriched for B cells using a StemCell Technologies RoboSep cell separation system, and resuspended to allow for a 200 μl intravenous injection. Tolerized and non-tolerized recipient groups received either a high cell 10×10^6 or a low cell 5×10^6 concentration via intravenous injections. Control groups were given rhGAA only, or rhGAA and methotrexate (single cycle of three consecutive daily MTX injections). All groups received weekly intravenous rhGAA 20 mg/kg injections, and were retro-orbitally bled biweekly for 16 weeks, into BD Vacutainer serum separator tubes. Serum was removed and stored below −20° C. until used for ELISA. Anti-rhGAA antibody titers were determined using ELISA, read on a SpectraMax M2, and calculated using Softmax to extrapolate titer value. […]

## CN(Cc1cnc2nc(N)nc(N)c2n1)c1ccc(C(=O)N[C@@H](CCC(=O)O)C(=O)O)cc1 [methotrexate, Methotrexate]
[1]; C57BL/6 wild-type, rhGAA and three cycles methotrexate, weeks 4, 6 and 9
  anti-rhGAA responses: decreased
[1]; week 9
  anti-rhGAA titers: slight decrease
[1]; weeks 4 and 6
  anti-rhGAA titers: not decreased
[1]; single cycle of three daily doses of 5 mg/kg methotrexate at week 1
  duration of control of anti-rhGAA responses: at least 20 weeks
[1]; week 6, rhGAA alone, rhGAA + methotrexate, or with 5 mg/kg 1D11 or 13C4
  animals exhibiting high anti-rhGAA titers: none
[2]
  transfer of immune tolerance to Myozyme in naive hosts by total splenic B cells: could transfer immune tolerance
